Measured values from US10487112B2, “Pediococcus acidilactici derived antimicrobial hexapeptide and preparation method thereof” (Jiangnan University, priority 2016, dated 2019).
Read-outs that look alike come from different tables or passages of the source. No end group written: not given here.

How the values were obtained:
Escherichia coli [1] = experiment: Stability of lactein R16 in pH (antimicrobial experiment after pH treatment); type: physicochemical
Experimental: 10 parts of purified active substance lactein R16 with the concentration of 100 mg·mL^−1 is selected, the pH of the lactein R16 is respectively regulated to be 1.0-10.0 by using 1.0 mol·L^−1 NaOH and 1.0 mol·L^−1 HCl, the lactein R16 is treated in a 37° C. water bath kettle for 2 h, then, the pH of the lactein R16 is regulated to be 4.5, and an antimicrobial experiment is performed to observe the inhibition of the lactein R16 to Escherichia coli. The result is shown as FIG. 2.
The antimicrobial activity of the lactein R16 is reduced step by step when the pH is 6.0-8.0, the reduction tendency is slow, and the residual activity is maintained at about 75%, which proves that the stability of the lactein R16 is reduced to a certain extent under such pH condition, but the pH has little influences on the stability of the lactein R16.

Escherichia coli [2] = experiment: Thermal stability of lactein R16 (antimicrobial experiment after heat treatment); type: physicochemical
Experimental: 8 parts of purified active substance lactein R16 with the concentration of 100 mg·mL^−1 is selected and is respectively treated at 40° C., 50° C., 60° C., 70° C., 80° C., 90° C. and 100° C. for 30 min and is subjected to high-pressure sterilization at 121° C. for 15 min, and an antimicrobial experiment is performed to observe the inhibition of the lactein R16 to Escherichia coli. The result is shown as FIG. 3.
The antimicrobial activity of the lactein R16 is lost by 59.98% after the lactein R16 is treated at 121° C. for 15 min.

Escherichia coli JM109 = experiment: Antimicrobial spectrum, oxford-cup method; type: cell-based; parameters: key to Antimicrobial level: “+++” represents for strong inhibition; “++” represents for relatively strong inhibition; “+” represents for inhibition; “−” represents for no inhibition; conditions: 100 mg·mL^−1, oxford-cup
Experimental: (§1) 8 parts of purified active substance lactein R16 with the concentration of 100 mg·mL^−1 is selected, and an inhibiting effect of the lactein R16 on Escherichia coli, Listeria monocytogenes and Staphylococcus aureus is detected by using an oxford-cup method.

Escherichia coli K99 = experiment: Antimicrobial spectrum, oxford-cup method; type: cell-based; parameters: key to Antimicrobial level: “+++” represents for strong inhibition; “++” represents for relatively strong inhibition; “+” represents for inhibition; “−” represents for no inhibition; conditions: 100 mg·mL^−1, oxford-cup
Experimental: as §1

[3] = system: Listeria monocytogenes CMCC(B)54002; experiment: Antimicrobial spectrum, oxford-cup method; type: cell-based; parameters: key to Antimicrobial level: “+++” represents for strong inhibition; “++” represents for relatively strong inhibition; “+” represents for inhibition; “−” represents for no inhibition; conditions: 100 mg·mL^−1, oxford-cup
Experimental: as §1

[4] = system: Staphylococcus aureus ATCC 6538; experiment: Antimicrobial spectrum, oxford-cup method; type: cell-based; parameters: key to Antimicrobial level: “+++” represents for strong inhibition; “++” represents for relatively strong inhibition; “+” represents for inhibition; “−” represents for no inhibition; conditions: 100 mg·mL^−1, oxford-cup
Experimental: as §1

[5] = system: Escherichia coli ATCC 25922; experiment: Antimicrobial spectrum, oxford-cup method; type: cell-based; parameters: key: “+++” represents for strong inhibition; “++” represents for relatively strong inhibition; “+” represents for inhibition; “−” represents for no inhibition; conditions: 100 mg·mL^−1, oxford-cup
Experimental: as §1

[6] = system: Staphylococcus aureus ATCC 6538; type: cell-based
Experimental: (§2) The antimicrobial activity is detected by adopting a minimum inhibitory concentration (MIC) method, and the operation is as follows:
(§3) (a) inoculating the bacteria into an LB liquid culture medium according to the inoculation amount of 1%, and carrying out shaking culture over the night at 37° C. and 200r·min^−1;
(§4) (b) inoculating the culture solution into 20 mL of the LB liquid culture medium according to the inoculation amount of 1%, and carrying out shaking culture at 37° C. and 200r·min′ until the OD600 is equal to about 0.5; […]
(§5) (e) adding 450 μL of the prepared bacterial suspension into an aseptic tissue culture plate, and then, respectively adding 50 μL of antimicrobial active substance diluents with corresponding concentrations to ensure that the concentrations of to-be-measured antimicrobial active substances are respectively 25.6, 12.8, 6.4, 3.2, 1.6, 0.8, 0.4, 0.2 and 0.1 mg·mL^−1; and carrying out culture in a 37° C. constant-temperature incubator for 18-24 h by taking 500 μL of the bacterial suspension as a positive control and 500 μL of the LB liquid culture medium as a negative control; and […]

[7] = system: Listeria monocytogenes CMCC(B)54002; experiment: Minimum inhibitory concentration (MIC) method; type: cell-based; conditions: LB medium, 37° C., 18-24 h
Experimental: as §2, §3, §4, §5

Bacillus subtilis = experiment: Influences on probiotics, viable count; type: cell-based; conditions: MRS medium with 6.4 mg·mL^−1, 37° C.
Experimental: (§6) Each of probiotics is subjected to two-stage activation, is inoculated into an MRS culture medium containing 6.4 mg·mL^−1 of antimicrobial active substances according to the inoculation amount of 1% and is cultured at the constant temperature of 37° C. for 24 h in contrast with the probiotics inoculated into the MRS culture medium. Coated plate counting is performed by using a viable count method. The result is shown as FIG. 4.
(§7) A microecological preparation used as one of green feed additives is widely applied to the feed, wherein a composite microecological preparation prepared from Saccharomycetes, Lactic Acid Bacteria and Bacillus is more common, not only can degrade and soften crude fibers and increase the content of proteins, but also can improve the palatability of the feed, regulate the intestinal microecological balance of the animals and promote digestive absorption and growth. Saccharomyces cerevisiae, Pediococcus pentosaceus, Enterococcus faecium, Lactobacillus plantarum and Bacillus subtilis are selected as a study object to study the influences of the lactein R16 on Saccharomyces cerevisiae, Pediococcus pentosaceus, Enterococcus faecium, Lactobacillus plantarum and Bacillus subtilis, and the result is shown as FIG. 4.

Enterococcus faecium = experiment: Influences on probiotics, viable count; type: cell-based; conditions: MRS medium with 6.4 mg·mL^−1, 37° C.
Experimental: as §6, §7

Lactobacillus plantarum = experiment: Influences on probiotics, viable count; type: cell-based; conditions: MRS medium with 6.4 mg·mL^−1, 37° C., 24 h
Experimental: as §6, §7

Pediococcus pentosaceus = experiment: Influences on probiotics, viable count; type: cell-based; conditions: MRS medium with 6.4 mg·mL^−1, 37° C., 24 h
Experimental: as §6, §7

Saccharomyces cerevisiae = experiment: Influences on probiotics, viable count; type: cell-based; conditions: MRS medium with 6.4 mg·mL^−1, 37° C., 24 h
Experimental: as §6, §7

[8] = Antioxidant capability, clearing hydrogen peroxide
Description: (§8) The feed contains a certain quantity of unsaturated fat, fatty acid, lipid-soluble vitamin, carotenoid and other lipid-soluble substances, which are easily oxidized in a storage process of the feed, and particularly fat and fatty acid can be oxidized to result in rancidity to generate different compounds such as aldehyde, alcohol, fat and acid which may generate various peculiar smells to seriously affect the palatability of the feed, and some compounds can generate adverse effects for the animals due to certain toxicity. The antioxidant capability of the lactein R16 to hydrogen peroxide, hydroxyl radicals, DPPH.radicals and superoxide anions is shown as FIG. 5.

[9] = Antioxidant capability, clearing hydroxyl radicals
Description: as §8

[10] = Antioxidant capability, clearing DPPH radicals
Description: as §8

[11] = Antioxidant capability, clearing superoxide anions
Description: as §8

[12] = system: Escherichia coli in the soybean meal; experiment: Inhibition of Escherichia coli in fermented soybean meal; type: cell-based; conditions: 48 h; for removal rate: 37° C.
Experimental: (a) crushing soybean meal by using a blade crusher, adding 4 parts (the weight of each part is 40 g) of soybean meal with the serial numbers of group 5, group 6, group 7 and group 8 into a 500 mL fermentation flask, and carrying out sterilization at 105° C. for 10 min;
(b) carrying out fermentation under conditions shown as table 3.
(c) measuring the amount of Escherichia coli according to the natural standard for measuring Escherichia coli in the feed.
The inhibiting effect of the lactein R16 to Escherichia coli in the soybean meal is studied by adding Escherichia coli into the sterilized soybean meal.

In the case of ENGEEE [lactein R16, ENGEEE], the “pH at which the antimicrobial activity reaches the maximum” value (Escherichia coli [1]; 100 mg·mL^−1, pH 1.0-10.0, 37° C. water bath 2 h, then pH 4.5, inhibition of Escherichia coli) is reported as 3.0-5.0, the residual activity (Escherichia coli [1]; pH 6.0-8.0, 37° C. 2 h, inhibition of Escherichia coli) is reported as “about 75%” and the pH stability (Escherichia coli [1]; summary statement) is reported as “good”. For the same substance, the “activity retained in the process of pelletizing” value (Escherichia coli [2]; pelletizing at 75-85° C. for 1-2 min) was “completely retained”, the thermal stability (Escherichia coli [2]; summary statement) was “good” and the “change of antimicrobial activity” value (Escherichia coli [2]; treated at 40, 50, 60, 70 and 80° C. for 30 min, 100 mg·mL^−1) was “no obvious changes”. The antimicrobial activity lost (Escherichia coli [2]; treated at 90° C. for 30 min) was 21.95%, the antimicrobial activity lost (Escherichia coli [2]; treated at 100° C. for 30 min) was 49.47% and the antimicrobial activity lost (Escherichia coli [2]; treated at 121° C. for 15 min (high-pressure sterilization)) was 59.98%. The Antimicrobial level (Escherichia coli JM109) was “++”, the “antimicrobial activity (in words)” value (Escherichia coli JM109) was “relatively strong antimicrobial activity” and the Antimicrobial level (Escherichia coli K99) was “++”. For the same substance, the “antimicrobial activity (in words)” value (Escherichia coli K99) was “relatively strong antimicrobial activity”, the Antimicrobial level [3] was “++” and the “antimicrobial activity (in words)” value [3] was “relatively strong antimicrobial activity”. The Antimicrobial level [4] was “+++”, the “antimicrobial activity (in words)” value [4] was “strongest” and the Antimicrobial level [5] was “+”. The MIC ([6]; ATCC 6538) was 3400 µg/mL, the MIC ([6]; LB medium, 37° C., 18-24 h) was 3200 µg/mL and the MIC [7] was 6400 µg/mL. The “total bacterial count after growing for 24 h” value (Bacillus subtilis) was “about 10^8 CFU·mL^−1”, the “total bacterial count reduced as comparison with contrast” value (Bacillus subtilis; 24 h) was 4.03% and the “total bacterial count after growing for 24 h” value (Enterococcus faecium) was “about 10^8 CFU·mL^−1”. The “total bacterial count reduced as comparison with contrast” value (Enterococcus faecium; 24 h) was 6.92%, the “effect on Lactobacillus plantarum (in words)” value (Lactobacillus plantarum) was “a certain effect on proliferating” and the “change of total bacterial count as comparison with contrast” value (Pediococcus pentosaceus) was “no obvious changes”. For the same substance, the “amount of Saccharomyces cerevisiae increased as comparison with contrast” value (Saccharomyces cerevisiae) was 24.50%, the “effect on Saccharomyces cerevisiae (in words)” value (Saccharomyces cerevisiae) was “a certain effect on proliferating” and the clearance rate [8] was 25.65%. It also gave a clearance rate [9] of 70.13%, a clearance rate [10] of 79.42% and a clearance rate [11] of 10.11%. The “amount of Escherichia coli after fermentation” value ([12]; 0.512 g in 40 g soybean meal, material-to-liquid ratio 1:0.8, 37° C., 1380·100 g^−1 before fermentation) was 123 ·100 g^−1, the removal rate ([12]; material-to-liquid ratio 1:0.8, 0.512 g in 40 g soybean meal) was 33.44% and the removal rate ([12]; material-water ratio 1:0.12, 0.512 g in 40 g soybean meal) was 56.64%.
